In patent US20200079819A1, “Use of a Vaccine Targeting a Cryptic Tert Epitope, for Treating Lung Cancer in a HLA-A*0201-Positive Never-Smoker or Light-Former Smoker Patient” (Vaxon Biotech, priority 2017, published 2020):
“And” between values parts separate entries of the source, which are not always exact repeats. Identical values can stand only once. No end group written: not given here.

Test system: HLA-A*0201 positive patients with NSCLC expressing TERT
Assay: Vx-001-201 randomized double blind phase IIb clinical trial (OS, TTF, 12 months survival)
Assay type: in vivo, human
From the text: The Vx-001-201 study is a randomized, double blind multicenter study done in 70 centers in France, Germany, Spain, Italy, Greece, Poland, Romania and Czech Republic. Key eligibility criteria were a) non small cell lung cancer (NSCLC), b) stage IV or recurrent stage I-III, c) disease control after platinum based first line chemotherapy according to RECIST 1.1 criteria, d) HLA-A*0201 positivity, e) tumors expressing TElomerase Reverse Transcriptase (TERT), f) ECOG 0 or 1 g) absence of brain metastasis.
a) Principal endpoint: overall survival (OS) measured from randomization
b) Secondary endpoints: • Time to Treatment Failure (TTF) measured from randomization • OS at 12 months
Patients who fulfilled all inclusion criteria were randomized within 4 weeks after the end of first line chemotherapy.
The vaccination protocol consisted in six vaccinations at three weeks interval. The optimized Vx-001/TERT572Y was used in the first two vaccinations and the native Vx-001/TERT572 in the following four vaccinations. Patients who continued controlling their disease after the sixth vaccination received boost vaccination with the Vx-001/TERT572 every three months. Vaccination was stopped at disease progression (FIG. 1).
The primary and secondary endpoints were analysed in the Full Analysis Set composed of all patients who fulfilled the […] five main criteria a) NSCLC, b) stage IV or recurrent stage I-III, and c) disease control after first line chemotherapy, d) HLA-A*0201 positivity and e) TERT expressing tumors.
We used the Kaplan-Meier method to estimate OS and TTF in each arm and a Cox proportional hazards regression model to estimate Hazard Ratio (HR) relating OS and TTF to the treatment effect.

[1] = FAS patients, all, Vx-001 vs placebo
[2] = FAS, 1st line chemotherapy CARBO (n = 119), Vx-001 arm
[3] = FAS, 1st line chemotherapy CDDP (n = 69), Vx-001 arm
[4] = FAS, Current smoker (n = 50), including light-smoker (≤25 years) (n = 5), Vx-001 arm
[5] = FAS, Female (n = 59), Vx-001 arm
[6] = FAS, Male (n = 131), Vx-001 arm
[7] = FAS, NS + Former smokers (<30 years)(n = 61), Vx-001 arm
[8] = FAS, NS + Former smokers (≤20 years)(n = 47), Vx-001 arm
[9] = FAS, Never smokers (NS) (n = 25), Vx-001 arm
[10] = FAS, age <65 years (n = 92), Vx-001 arm
[11] = FAS, age >65 years (n = 98), Vx-001 arm
[12] = FAS, response to chemotherapy OR (n = 87), Vx-001 arm
[13] = FAS, response to chemotherapy SD (n = 103), Vx-001 arm
[14] = FAS, sub-group NSQ (n = 118), Vx-001 arm
[15] = FAS, sub-group SQ (n = 72), Vx-001 arm
[16] = NS + Former smokers (≤25 years), all (n = 55), Vx-001 arm
[17] = never-smokers and light-smokers (≤25 years, stopped or not), <65 y (n = 28), Vx-001 arm
[18] = never-smokers and light-smokers (≤25 years, stopped or not), >65 y (n = 32), Vx-001 arm
[19] = never-smokers and light-smokers (≤25 years, stopped or not), All (n = 60), Vx-001 arm
[20] = never-smokers and light-smokers (≤25 years, stopped or not), ECOG 0 (n = 28), Vx-001 arm
[21] = never-smokers and light-smokers (≤25 years, stopped or not), ECOG 1 (n = 32), Vx-001 arm
[22] = never-smokers and light-smokers (≤25 years, stopped or not), Female (n = 25), Vx-001 arm
[23] = never-smokers and light-smokers (≤25 years, stopped or not), Male (n = 35), Vx-001 arm
[24] = never-smokers and light-smokers (≤25 years, stopped or not), NSQ (n = 46), Vx-001 arm

Vx-001: vaccine composed of two nine-amino-acid peptides, TERT572 (SEQ ID No: 1) and TERT572Y (SEQ ID No: 2), administered separately with adjuvant Montanide ISA51 VG (chain 1 RLFFYRKSV; chain 2 YLFFYRKSV; not fully specified)
12 months survival (FAS patients, all, Vx-001 arm): 58% | OS (median) (FAS patients, all, Vx-001 arm): 14.3 months | TTF (median) (FAS patients, all, Vx-001 arm): 3.6 months | HR (OS) [1]: 0.97 | HR (TTF) [1]: 0.88 | 12 months OS (%) [2]: 58.2% | Median survival (months) [2]: 14.3 months | HR (OS) (FAS, 1st line chemotherapy CARBO (n = 119), Vx-001 vs placebo): 1.06 | 12 months OS (%) [3]: 59% | Median survival (months) [3]: 15 months | HR (OS) (FAS, 1st line chemotherapy CDDP (n = 69), Vx-001 vs placebo): 0.81 | 12 months OS (%) [4]: 37.5% | Median survival (months) [4]: 9 months | HR (OS) (FAS, Current smoker (n = 50), including light-smoker (≤25 years) (n = 5), Vx-001 vs placebo): 1.39 | 12 months OS (%) [5]: 53.3% | Median survival (months) [5]: 13.2 months | HR (OS) (FAS, Female (n = 59), Vx-001 vs placebo): 1.52 | 12 months OS (%) [6]: 61% | Median survival (months) [6]: 15 months | HR (OS) (FAS, Male (n = 131), Vx-001 vs placebo): 0.81 | 12 months OS (%) [7]: 69% | Median survival (months) [7]: 16.2 months | HR (OS) (FAS, NS + Former smokers (<30 years)(n = 61), Vx-001 vs placebo): 0.67 | 12 months OS (%) [8]: 72.7% | Median survival (months) [8]: 15.3 months | HR (OS) (FAS, NS + Former smokers (≤20 years)(n = 47), Vx-001 vs placebo): 0.67 | 12 months OS (%) [9]: 70% | Median survival (months) [9]: 14.1 months | HR (OS) (FAS, Never smokers (NS) (n = 25), Vx-001 vs placebo): 0.76 | 12 months OS (%) [10]: 57.7% | Median survival (months) [10]: 13.4 months | HR (OS) (FAS, age <65 years (n = 92), Vx-001 vs placebo): 1.2 | 12 months OS (%) [11]: 59% | Median survival (months) [11]: 15 months | HR (OS) (FAS, age >65 years (n = 98), Vx-001 vs placebo): 0.78 | 12 months OS (%) [12]: 69% | Median survival (months) [12]: 15.3 months | HR (OS) (FAS, response to chemotherapy OR (n = 87), Vx-001 vs placebo): 0.89 | 12 months OS (%) [13]: 52% | Median survival (months) [13]: 14.3 months | HR (OS) (FAS, response to chemotherapy SD (n = 103), Vx-001 vs placebo): 0.99 | 12 months OS (%) [14]: 55% | Median survival (months) [14]: 13.4 months | HR (OS) (FAS, sub-group NSQ (n = 118), Vx-001 vs placebo): 0.88 | 12 months OS (%) [15]: 64% | Median survival (months) [15]: 14.3 months | HR (OS) (FAS, sub-group SQ (n = 72), Vx-001 vs placebo): 1.13 | 12 months OS (%) [16]: 73% and 73.1% | Median survival (months) [16]: 16.2 months | 12 months OS [17]: 76.9% | OS (months) [17]: 20.2 months | HR (OS) (never-smokers and light-smokers (≤25 years, stopped or not), <65 y (n = 28), Vx-001 vs placebo): 0.50 | 12 months OS [18]: 64.3% | OS (months) [18]: 15.3 months | HR (OS) (never-smokers and light-smokers (≤25 years, stopped or not), >65 y (n = 32), Vx-001 vs placebo): 0.62 | 12 months OS [19]: 70.4% | OS (months) [19]: 20.2 months | HR (OS) (never-smokers and light-smokers (≤25 years, stopped or not), All (n = 60), Vx-001 vs placebo): 0.55 | 12 months OS [20]: 66.7% | OS (months) [20]: 24.7 months | HR (OS) (never-smokers and light-smokers (≤25 years, stopped or not), ECOG 0 (n = 28), Vx-001 vs placebo): 0.52 | 12 months OS [21]: 73.3% | OS (months) [21]: 15.3 months | HR (OS) (never-smokers and light-smokers (≤25 years, stopped or not), ECOG 1 (n = 32), Vx-001 vs placebo): 0.49 | 12 months OS [22]: 61.5% | OS (months) [22]: 15.3 months | HR (OS) (never-smokers and light-smokers (≤25 years, stopped or not), Female (n = 25), Vx-001 vs placebo): 0.95 | 12 months OS [23]: 78.6% | OS (months) [23]: 24.7 months | HR (OS) (never-smokers and light-smokers (≤25 years, stopped or not), Male (n = 35), Vx-001 vs placebo): 0.34 | 12 months OS [24]: 70.0% | OS (months) [24]: 20.2 months | HR (OS) (never-smokers and light-smokers (≤25 years, stopped or not), NSQ (n = 46), Vx-001 vs placebo): 0.50 | 12 months OS (never-smokers and light-smokers (≤25 years, stopped or not), SQ (n = 14), Vx-001 arm): 71.4%
